Patent US9388250B2, “Method to treat psoriasis and other hyperproliferative skin disorders” (CORNELL UNIVERSITY, priority 2009, dated 2016)

Tests used:
C57B1/6 mouse ears [1] = test: IL-22-induced acanthosis in mouse ears, topical application of KH7; type: in vivo; details: ear painted with 100 micromolar KH7 in DMSO one hour after IL-22 injection, every other day for two weeks, three mice, ANOVA P<0.05 IL-22 vs IL-22+KH7, not different from control
Procedure: FIG. 11. Topical application of KH7 inhibits IL-22-induced acanthosis As before C57B1/6 mouse ears were injected with normal saline (control) or 500 ng of IL-22 in 20 microliters of normal saline (IL-22). After incubation for one hour the left ear was painted with 5 microliters of DMSO and the right ear was painted with 100 micromolar KH7 in DMSO (IL-22+KH7). This was repeated every other day for two weeks. The ears were then removed and the total area of acanthosis of each ear was calculated and represented as a % of acanthosis relative to control ears. […]
IL-22 protein was purchased from Preprotech and reconstituted in sterile water as per the manufacturer's instructions. […] Epidermal height was measured from the bottom of the basal cell layer to the top of the granular cell layer using a microscope and a micrometer. Three to four measurements were taken along the ear and multiple sections were measured for each condition. In addition, the total number of acanthotic ear sections were recorded as an indication of the distribution of acanthosis.
Topical application of KH7 inhibits IL-22-induced acanthosis. […] The ears were then removed and the total area of acanthosis of each ear was calculated and represented as a % of acanthosis relative to control ears. […]

keratinocytes in culture = test: IL-22-induced rise in cAMP within keratinocytes in culture; type: cell-based; details: IL-22 stimulated
From the text: To address the role of sAC in keratinocyte proliferation we studied IL-22-induced psoriasis pathogenesis as a model system. IL-22 induced a rise in cAMP within keratinocytes in culture. This cAMP rise was inhibited by KH7 (a specific inhibitor of sAC).

C57B1/6 mouse ears [2] = test: IL-22-induced acanthosis in mouse ears, subcutaneous co-injection of IL-22+KH7; type: in vivo
Procedure: FIG. 1 Tissue sections stained with H/E of C57B1/6 mouse ears following injection with saline, IL-22 and IL-22+KH7 (a sAc inhibitor). Slides were visualized on a standard pathology microscope. Bar graph in lower right corner represents the average±SEM thickness of epidermis in each of three conditions listed in the previous sentence. a student t test was performed with p value listed.
IL-22 protein was purchased from Preprotech and reconstituted in sterile water as per the manufacturer's instructions. Concentrated IL-22 was diluted to a working concentration of 500 ng/20 μL in sterile saline alone, or with KH7 at 100 μM. These solutions were prepared fresh each day they were used. C57B1/6 mice greater than 2 months in age, kept under a normal light/dark cycle, and fed normal chow were injected subcutaneously in their left ear with 20 μL of IL-22 alone and in their right ear with 20 μL of IL-22+KH7 every other day for two weeks, or were injected subcutaneously in their left and right ear with 20 μL of IL-22 and then treated topically (54) following each injection with vehicle on the left ear and KH7 on the right ear every other day for two weeks. As a control C57B1/6 mice were injected with 20 μL of IL-22 in their left ear and 20 μL of sterile saline alone in their right ear every other day for two weeks. After two weeks the ears were removed, formalin fixed, paraffin embedded, sectioned, and stained with simple hematoxylin and eosin. Epidermal height was measured from the bottom of the basal cell layer to the top of the granular cell layer using a microscope and a micrometer. Three to four measurements were taken along the ear and multiple sections were measured for each condition. In addition, the total number of acanthotic ear sections were recorded as an indication of the distribution of acanthosis.

## CC(Sc1nc2ccccc2[nH]1)C(=O)N/N=C/c1cc(Br)ccc1O (centres unmarked) [KH7]
C57B1/6 mouse ears [1]
  IL-22-induced acanthosis (total area of acanthosis, % relative to control ears): inhibits
Keratinocytes in culture
  IL-22-induced cAMP rise within keratinocytes: inhibited
C57B1/6 mouse ears [2]; IL-22 500 ng/20 μL with KH7 at 100 μM, every other day for two weeks
  IL-22-induced acanthosis (thickness of epidermis): completely blocked
C57B1/6 mouse ears [2]; IL-22 with KH7, every other day for two weeks
  IL-22-induced parakeratosis: completely blocked
C57B1/6 mouse ears [2]; injection of IL-22+KH7, H/E sections
  IL-22-induced recruitment of immunocytes (ie T cells): completely blocked
